Drawing on patent publication US9029381B2, “Cyclopropyl amide derivatives” (Astrazeneca AB, priority 2007, dated 2015), this text covers IC50 for 13 molecules.

Test [1] addresses human histamine H3 receptors (Homo sapiens (Human), UniProt Q9Y5N1). In words: Histamine H3 SPA with the agonist radioligand [3H]-N-α-methylhistamine (hH3 binding). The conditions noted are these: inhibition of [3H]-N-α-methylhistamine (1.4 nM) binding to CHO-K1 membranes expressing full-length human H3 (isoform 445). The procedure: Histamine H3 SPA with the Agonist Radioligand [^3H]-N-α-Methylhistamine
The H3 binding assay was/can be used to evaluate the ability of at least one compound in accordance with formula I, Ia, Ib, and/or Ic to inhibit [^3H]-N-α-methylhistamine binding to CHO-K1 membranes expressing human histamine H3 receptors (full-length H3, the most prevalent brain isoform 445). In 200 μl 96-well SPA format, human H3 membranes (12.5 μg protein/well) and 1.4 nM [^3H]-N-α-methylhistamine were/can be incubated with at least one compound in accordance with formula I, Ia, Ib, and/or Ic for 1.5 hrs to determine percent effect with respect to total (1% DMSO) and non-specific binding (10 μM imetit). […] Single poke (SP) testing can be done in triplicate.
Membranes, prepared from CHO-K1 cells stably expressing the human histamine H3 receptor, can be obtained from ACS.
Tested formula I, Ia, Ib, and/or Ic compounds were/can be provided as solubilized samples in neat DMSO. Serial dilutions were/can be performed in DMSO.
Plates were/can be 96-well Unifilter GF/B (Perkin Elmer, 6005177). Plates were/can be read on a Perkin Elmer TopCount. CPM data was/can be used to analyze unless DPM data generated by a quench curve was/is required.
• 1. 1 mg/ml BSA was/can be added to assay buffer (AB) on day of assay. • 2. Amounts required for bead/membrane pool in AB were/can be calculated: “P”−need 17.1 ml/assay plate+10 ml PlateMate excess. Buffer volume was/can be split between beads and membranes to allow for polytroning of membranes prior to addition to beads. • a. […] A minimum of 15 minutes was/can be waited prior to adding membranes (See b. below). • b. Membranes (hH3 membranes from CHO cells containing recombinant human H3 receptors, 11.7 mg/ml): membranes were/can be removed from −80° C. and thawed in RT waterbath. (0.0702 mg/ml×P) mg of membranes were/can be resuspended in the remaining volume not used with beads above for 12.5 μg/well final and homogenized briefly at polytron speed 5.0. The homogenized membrane mixture was/can be combined with the beads and a minimum of 30 minutes was/can be waited prior to dispensing to plate. • 3. Formula I, Ia, Ib, and/or Ic compounds: For Single Poke, 2 μl mM of a compound in accordance with formula I, Ia, Ib, and/or Ic was/can be dispensed to Optiplates (triplicate plates) for final a concentration of 10 μM. […] Imetit (see below) was/can be used as a control. • 4. […] [^3H]-N-α-methylhistamine ([^3H]-NAMH): A solution in AB at 14 nM, 10× final concentration of 1.4 nM was/can be prepared. 5 μl samples were/can be calculated in quadruplicate on the 13 counter. If concentration was/is 12-14.5 nM, no adjustment was/is may be required. (For IC50s, use final concentration on calculation tab of ABase template.) Assay • 1. […] 2 μl of the formula I, Ia, Ib, and/or Ic compound dilution was/can be mixed and then transferred into assay plates. DMSO was/can be removed and 2 μl of 100 μM Imetit was/can be added to the wells. • 3. 178 μl bead/membrane mixture was/can be dispensed into the assay plate. • 4. 20 μl [^3H]-NAMH was/can be added with Rapid Plate. The assay plate was/can be sealed and incubated for 1.5 hr on RT shaker at speed ˜6.5. • 5. The assay plate was/can be subsequently centrifuged at 1000 rpm for 10 minutes. • 6. The count was/can be performed on TopCount using one of the 3H SPA H3 Quench programs.
The DPM data was/can be analyzed when tSIS was/is less than that associated with 70% of full scale on the quench curve (tSIS<25%). Otherwise, CPM data was/is used.
(§1) The IC50 and nH can be determined by fitting the data to model 205 in XLfit: y=A+((B−A)/(1+((C/x)^D)). Guanosine 5′-O-(3-[^35S]thio)triphosphate [GTPγS] Binding Assay

In test [2] the target is human Histamine H3 receptor (hH3R) (Homo sapiens (Human), UniProt Q9Y5N1). Briefly: Guanosine 5'-O-(3-[35S]thio)triphosphate [GTPγS] binding assay. In kind it is biochemical. Conditions: antagonist mode vs (R)-α-methyl histamine 30 nM; membranes from CHO cells expressing hH3R. The procedure:
as §1
A GTPγS binding assay can be used to investigate antagonist properties of compounds in CHO cells (Chinese Hamster Ovary) transfected with human Histamine H3 receptor (hH3R). Membranes from CHO cells expressing hH3R (10 μg/well) are diluted in GTPγS assay buffer (20 mM Hepes, 10 mM MgCl2, 100 mM NaCl, pH 7.4) and preincubated with saponine (3 μg/ml), GDP (10 μM) and PVT-WGA SPA beads (125 μg/well) (Amersham) for 30 minutes. To determine antagonist activity, (R)-α-methyl histamine (30 nM) is added in 96 well SPA plate with [^35S]GTPγS (0.2 nM) and various concentration of H3R antagonists. The GTPγS binding assay is started with addition of the mixture membrane/saponine/GDP and incubated for 90 minutes at room temperature. The amount of bound [^35S]GTPγS is determined by using the MicroBeta Trilux counter (PerkinElmer). The percentage of [^35S]GTPγS bound in each sample is calculated as a percentage of that bound control sample incubated in absence of H3 antagonist. Duplicate determinations are obtained for each concentration, and the data are analyzed using ExcelFit4 to obtain the IC50.

Chain of human histamine H3 receptors (Q9Y5N1 whole entry, canonical isoform): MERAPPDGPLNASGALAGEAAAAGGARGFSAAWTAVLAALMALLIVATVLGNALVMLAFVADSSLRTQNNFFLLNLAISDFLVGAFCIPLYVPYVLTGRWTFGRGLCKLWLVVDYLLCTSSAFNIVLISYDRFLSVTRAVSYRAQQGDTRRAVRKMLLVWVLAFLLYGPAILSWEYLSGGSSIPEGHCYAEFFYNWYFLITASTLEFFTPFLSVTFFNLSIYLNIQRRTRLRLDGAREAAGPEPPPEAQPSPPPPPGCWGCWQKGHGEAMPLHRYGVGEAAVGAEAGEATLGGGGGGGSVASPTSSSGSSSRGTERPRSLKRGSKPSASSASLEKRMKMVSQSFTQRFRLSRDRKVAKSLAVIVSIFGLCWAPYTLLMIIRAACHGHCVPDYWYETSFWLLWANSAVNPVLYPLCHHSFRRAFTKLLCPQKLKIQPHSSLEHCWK
Chain of human Histamine H3 receptor (hH3R) (Q9Y5N1 whole entry): as the sequence (Q9Y5N1 whole entry, canonical isoform) above

For the molecule `CCCN1CCN(C(=O)[C@H]2C[C@@H]2c2ccccc2)CC1` (relative stereo) [Example 7, trans-(2-Phenylcyclopropyl)-(4-propylpiperazin-1-yl)methanone], the IC50 (as a rule, the concentration that inhibits the measured activity by half) in test [1] was 146 nM; in test [2] it was 39.7 nM.
`O=C([C@H]1C[C@@H]1c1ccc(N2CCCC2=O)cc1)N1CCN(C2CCC2)CC1` (relative stereo) [Example 17, trans-1-{4-[2-(4-Cyclobutylpiperazine-1-carbonyl)cyclopropyl]phenyl}pyrrolidin-2-one]: the 50% inhibitory concentration (IC50) stood at 433 nM in test [1] and 196 nM in test [2].
Consider `O=C([C@H]1C[C@@H]1c1ccc(-c2cn[nH]c2)cc1)N1CCN(C2CCC2)CC1` (relative stereo) [Example 20, trans-{2-[4-(1H-Pyrazol-4-yl)phenyl]cyclopropyl}-(4-cyclobutylpiperazin-1-yl)methanone], for which the figures for the IC50 in test [1] and in test [2] were 29.1 nM and 33.9 nM, respectively.
For the molecule `O=C([C@H]1C[C@@H]1c1cccc(N2CCCC2=O)c1)N1CCN(C2CCC2)CC1` (relative stereo) [Example 34, trans-1-(3-(2-(4-Cyclobutylpiperazine-1-carbonyl)cyclopropyl)phenyl)pyrrolidin-2-one], the 50% inhibitory concentration (IC50) in test [1] was determined as 5.09 nM; in test [2], 23.9 nM.
Take `NC(=O)c1ccc([C@@H]2C[C@H]2C(=O)N2CCN(C3CCC3)CC2)cc1` (relative stereo) [Example 42, 4-((trans)-2-(4-cyclobutylpiperazine-1-carbonyl)cyclopropyl)benzamide]: the concentration for half-maximal inhibition (IC50) came to 14.4 nM in test [1] and 5.83 nM in test [2].
In test [2], `O=C([C@@H]1C[C@H]1c1cccc(N2CCCCC2=O)c1)N1CCN(C2CCC2)CC1` (single isomer, unassigned; enantiomer 2) [Example 41, 1-(3-((trans)-2-(4-cyclobutylpiperazine-1-carbonyl)cyclopropyl)phenyl)piperidin-2-one, enantiomer 2] yielded a half-maximal inhibitory concentration (IC50) of 733 nM.
The same measure, in the same setting: in the case of `NC(=O)c1ccc([C@@H]2C[C@H]2C(=O)N2CCN(C3CCC3)CC2)cc1` (single isomer, unassigned; enantiomer 2) [Example 44, 4-((trans)-2-(4-cyclobutylpiperazine-1-carbonyl)cyclopropyl)benzamide, enantiomer 2] it was 834 nM.
Take `O=C([C@H]1C[C@@H]1c1ccc(Br)cc1)N1CCN(C2CCC2)CC1` [Example 14, (1S,2S)-(2-(4-bromophenyl)cyclopropyl)(4-cyclobutylpiperazin-1-yl)methanone]: the IC50 in test [1] is 16.8 nM; in test [2] it was 6.81 nM.
As for `O=C([C@@H]1C[C@H]1c1ccc(Br)cc1)N1CCN(C2CCC2)CC1` [Example 15, (1R,2R)-(2-(4-bromophenyl)cyclopropyl)(4-cyclobutylpiperazin-1-yl)methanone], the figures for the half-inhibitory concentration (IC50) in test [1] and in test [2] were 3400 nM and 262 nM, respectively.
As for `O=C([C@H]1C[C@@H]1c1ccccc1)N1CCN(C2CCC2)CC1` [Example 24, (4-cyclobutylpiperazin-1-yl)((1S,2S)-2-phenylcyclopropyl)methanone], the IC50 is 3.49 nM in test [1] and 3.41 nM in test [2].
For `O=C([C@@H]1C[C@H]1c1ccccc1)N1CCN(C2CCC2)CC1` [Example 25, (4-cyclobutylpiperazin-1-yl)((1R,2R)-2-phenylcyclopropyl)methanone], the IC50 in test [1] is 6420 nM; in test [2], 870 nM.
The molecule `CC(C)N1CCN(C(=O)C2CC2c2cnn(C)c2)CC1` (stereo not shown) [Example 45, (4-isopropylpiperazin-1-yl)(2-(1-methyl-1H-pyrazol-4-yl)cyclopropyl)methanone] registered a half-maximal inhibitory concentration (IC50) in test [2] of 127 nM.
Molecule `O=C([C@H]1C[C@@H]1c1ccc(-c2cncnc2)cc1)N1CCN(C2CCC2)CC1` [Example 46, (4-cyclobutylpiperazin-1-yl)((1S,2S)-2-(4-(pyrimidin-5-yl)phenyl)cyclopropyl)methanone] gave an IC50 in test [2] of 20.2 nM.
